Assay results taken from article PMC10089289, “Well-Defined Heparin Mimetics Can Inhibit Binding of the Trimeric Spike of SARS-CoV-2 in a Length-Dependent Manner” (JACS Au, 2023).

How the values were obtained:
[1] = target: trimeric spike glycoprotein of SARS-CoV-2; test: SPR competition assay: binding of SARS-CoV-2 spike trimer to heparin-immobilized sensor chip; conditions: 100 nM spike trimer, 25 °C, read-out: IC50, inhibition of binding of spike trimer to immobilized heparin (50% reduction in RUs)
Vero E6 cells = conditions: 100 μg/mL; 24 h incubation
Factor-Xa = test: AT-III mediated Factor-Xa inhibition assay (Biophen Anti-Xa, two-stage chromogenic); type: biochemical, bovine; conditions: colorimetric, Biophen Anti-Xa kit
Experimental: (§1) To validate the SPR results, AT-III-mediated anti-Factor-Xa and anti-Factor-IIa activities of the mimetics and UFH were measured using a colorimetric assay (Biophen Anti-Xa and Anti-IIa kits, two-stage chromogenic assays) (Figures 6B and S16–S17).
(§2) AT-III mediated Factor-IIa inhibition assays: Anti-Factor IIa activity of mimetics (1 and 6) and UFH was determined by BIOPHENÔ ANTI-IIa (2 Stages Heparin Assay) kit following manufacturer’s instructions. Human antithrombin (AT-III), purified human thrombin (Factor IIa) and thrombin specific chromogenic substrate [CS-01(38)] were reconstituted and prepared in specific buffers in accordance with kit protocol. […] After exactly 2 min, the reaction was stopped by introducing citric acid (2 wt.%, 80 µL), mixed and absorbance at 405 nm (POLARstar Optima, BMG Labtech) against the corresponding blank was measured. […] Measured blank value were subtracted from the absorbance measured for the corresponding test. The IC50 values (Figures S16) were calculated using dose-response equations [nonlinear regression, log(inhibitor) vs. response-variable slope (four parameters)] built in Prism software 9 (GraphPad Software, Inc.). […]
(§3) AT-III mediated Factor-Xa inhibition assays: Anti-Factor Xa activity of mimetics (1 and 6) and UFH was determined by BIOPHENÔ ANTI-Xa (2 Stages Heparin Assay) kit following manufacturer’s instructions. […]

[2] = target: SARS-CoV-2 Wuhan RBD binding to Vero E6 cells (Severe acute respiratory syndrome coronavirus 2, UniProt P0DTC2); type: cell-based
[3] = target: T1, antithrombin-III (AT-III) (Homo sapiens, UniProt P01008); test: SPR competition assay: binding of AT-III to heparin chip; conditions: 100 nM AT-III, 100 to 0.001 μg/mL
T1 construct: purchased Haematologic technologies
T1 sequence (P01008 33-464): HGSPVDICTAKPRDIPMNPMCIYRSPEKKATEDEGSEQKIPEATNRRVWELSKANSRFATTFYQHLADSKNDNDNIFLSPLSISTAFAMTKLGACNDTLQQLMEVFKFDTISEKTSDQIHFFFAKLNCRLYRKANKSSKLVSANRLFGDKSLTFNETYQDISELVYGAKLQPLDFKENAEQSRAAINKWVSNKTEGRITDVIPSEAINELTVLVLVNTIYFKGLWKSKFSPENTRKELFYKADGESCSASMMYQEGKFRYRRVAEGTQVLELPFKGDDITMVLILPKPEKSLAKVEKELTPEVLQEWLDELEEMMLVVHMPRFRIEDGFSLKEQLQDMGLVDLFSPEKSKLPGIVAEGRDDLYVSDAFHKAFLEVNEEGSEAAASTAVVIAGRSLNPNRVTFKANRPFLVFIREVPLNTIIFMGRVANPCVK
Text: (§4) A competition SPR method[32]−[34] was employed to examine the binding of compounds 1 and 6 to AT-III and PF4, and the results were compared to similar properties of UFH. First, biotinylated heparin was immobilized on a streptavidin-coated sensor chip, which was employed to establish equilibrium dissociation constants (KD) of AT-III and PF4 by employing different concentrations of these proteins as analytes (Figure S9). […] The determined KD values are in close agreement with literature reports.[34]−[36] Next, inhibition experiments were performed by premixing different concentrations of monovalent 1, tetravalent 6, and UFH with AT-III or PF4 followed by exposure to the sensor chip modified by heparin. […] The fact that tetravalent 6 does bind to PF4 supports the notion that it is a mimetic of heparin.
(§5) 6. Coagulation-related proteins SPR binding and competition studies
(§6) Coagulation-related proteins SPR binding studies: Human antithrombin-III (AT-III) was obtained from Haematologic technologies. […] Using Biacore T100 evaluation software, AT-III equilibrium dissociation constant (KD) was determined by fitting binding curves to two-state reaction model built in Biacore T100 evaluation software. For PF-4, steady-state affinity analysis was performed on the response curves of various PF-4 concentrations and KD value was calculated (Figure S9). […]

Factor-IIa (thrombin) = target: T2, Factor-IIa (thrombin) (Homo sapiens, UniProt P00734); test: AT-III mediated Factor-IIa inhibition assay (Biophen Anti-IIa, two-stage chromogenic); type: biochemical; conditions: colorimetric, Biophen Anti-IIa kit
T2 construct: purchased BIOPHEN ANTI-IIa (2 Stages Heparin Assay) kit
Experimental: as §1, §2, §3

platelet factor 4 (PF4) = target: T3, platelet factor 4 (PF4) (Homo sapiens, UniProt P02776); test: SPR competition assay: binding of PF4 to heparin chip; conditions: 100 nM PF-4, 100 to 0.001 μg/mL
T3 construct: purchased Sino Biological, Inc
T3 sequence (P02776 32-101): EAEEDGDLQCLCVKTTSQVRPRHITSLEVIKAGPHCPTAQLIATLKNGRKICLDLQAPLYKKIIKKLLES
Text: as §4, §5, §6

Structure (SMILES)	IC50 [1]	Cytotoxicity on Vero E6 cells (Vero E6 cells)	IC50, AT-III-mediated inhibition of Factor-Xa (Factor-Xa)	Inhibition of trimeric RBD binding to Vero E6 cells ([2]; 125 μg/mL (62.6 μM), RBDs from Wuhan and delta)	Inhibition of Wuhan RBD binding to Vero E6 cells ([2]; RBD pretreated with 10 and 125 μg/mL compound)	IC50, inhibition of AT-III binding to heparin surface [3]	IC50, AT-III-mediated inhibition of Factor-IIa (Factor-IIa (thrombin))	IC50, inhibition of PF4 binding to heparin surface (platelet factor 4 (PF4))
CC(=O)NC1C(OC2C(C(=O)O)OC(OC3C(COS(=O)(=O)O)OC(OC4C(C(=O)O)OC(OC5C(COS(=O)(=O)O)OC(OC6C(C(=O)O)OC(OC7C(COS(=O)(=O)O)OC(OCCCCCN)C(NS(=O)(=O)O)C7O)C(OS(=O)(=O)O)C6O)C(NS(=O)(=O)O)C5O)C(OS(=O)(=O)O)C4O)C(NS(=O)(=O)O)C3O)C(O)C2O)OC(Cn2cc(CCC(=O)NCCCCCOC3OC(COS(=O)(=O)O)C(OC4OC(C(=O)O)C(OC5OC(COS(=O)(=O)O)C(OC6OC(C(=O)O)C(OC7OC(COS(=O)(=O)O)C(OC8OC(C(=O)O)C(O)C(O)C8O)C(O)C7NS(=O)(=O)O)C(O)C6OS(=O)(=O)O)C(O)C5NS(=O)(=O)O)C(O)C4OS(=O)(=O)O)C(O)C3NS(=O)(=O)O)nn2)C(O)C1O (stereo not drawn) [Compound 4]	> 10 µM	–	–	–	–	–	–	–
NCCCCCOC1OC(COS(=O)(=O)O)C(OC2OC(C(=O)O)C(OC3OC(COS(=O)(=O)O)C(OC4OC(C(=O)O)C(OC5OC(COS(=O)(=O)O)C(OC6OC(C(=O)O)C(O)C(O)C6O)C(O)C5NS(=O)(=O)O)C(O)C4OS(=O)(=O)O)C(O)C3NS(=O)(=O)O)C(O)C2OS(=O)(=O)O)C(O)C1NS(=O)(=O)O (stereo not drawn) [Compound 1, GlcA-GlcNS6S-IdoA2S-GlcNS6S-IdoA2S-GlcNS6S]	> 50 µM	no toxicity	70 µg/mL	failed to invoke substantial inhibition	no inhibition was detected	no inhibitory potential	failed to invoke any inhibition	no inhibition was observed
